# Assays:
# Type in all cases: functional
# SN12C [1] = assay: Cytotoxicity against human SN12C cells assessed as cell growth at 10 uM after 48 hrs by sulforhodamine B assay relative to control; details: read-out: Activity
# SW-620 [2] = assay: Cytotoxicity against human SW620 cells assessed as cell growth at 10 uM after 48 hrs by sulforhodamine B assay relative to control; details: SW-620, 48 h, read-out: Activity
# UACC-257 [3] = assay: Cytotoxicity against human UACC257 cells assessed as cell growth at 100 uM after 48 hrs by sulforhodamine B assay relative to control; details: UACC-257, 48 h, read-out: Activity
# BT-549 = assay: Cytotoxicity against human BT549 cells assessed as cell growth at 1 uM after 48 hrs by sulforhodamine B assay relative to control; details: BT-549, 48 h, read-out: Activity
# UO-31 = assay: Cytotoxicity against human UO31 cells assessed as cell growth at 10 uM after 48 hrs by sulforhodamine B assay relative to control; details: UO-31, 48 h, read-out: Activity
# MDA-MB-435 [4] = assay: Cytotoxicity against human MDA-MB-435 cells assessed as growth inhibition after 48 hrs by sulforhodamine B assay; details: MDA-MB-435, 48 h
# RPMI-8226 = assay: Cytotoxicity against human RPMI8226 cells assessed as cell growth at 0.01 uM after 48 hrs by sulforhodamine B assay relative to control; details: RPMI-8226, 48 h, read-out: Activity
# T47D = assay: Cytotoxicity against human T47D cells assessed as cell growth at 100 uM after 48 hrs by sulforhodamine B assay relative to control; details: read-out: Activity
# DU-145 = assay: Cytotoxicity against human DU145 cells assessed as cell growth at 0.01 uM after 48 hrs by sulforhodamine B assay relative to control; details: DU-145, 48 h, read-out: Activity
# SK-MEL-5 [5] = assay: Cytotoxicity against human SK-MEL-5 cells assessed as cell growth at 0.01 uM after 48 hrs by sulforhodamine B assay relative to control; details: SK-MEL-5, 48 h, read-out: Activity
# MCF7 = assay: Cytotoxicity against human MCF7 cells assessed as cell growth at 100 uM after 48 hrs by sulforhodamine B assay relative to control; details: MCF7, 48 h, read-out: Activity
# SNB-19 = assay: Cytotoxicity against human SNB19 cells assessed as cell growth at 0.01 uM after 48 hrs by sulforhodamine B assay relative to control; details: SNB-19, 48 h, read-out: Activity
# COLO 205 [6] = assay: Cytotoxicity against human COLO205 cells assessed as cell growth at 10 uM after 48 hrs by sulforhodamine B assay relative to control; details: COLO 205, 48 h, read-out: Activity
# HCT-15 = assay: Cytotoxicity against human HCT15 cells assessed as cell growth at 0.1 uM after 48 hrs by sulforhodamine B assay relative to control; details: HCT-15, 48 h, read-out: Activity
# ACHN = assay: Cytotoxicity against human ACHN cells assessed as cell growth at 0.1 uM after 48 hrs by sulforhodamine B assay relative to control; details: read-out: Activity
# NCI-H322M = assay: Cytotoxicity against human NCI-H322M cells assessed as cell growth at 0.1 uM after 48 hrs by sulforhodamine B assay relative to control; details: read-out: Activity
# NCI-H522 [7] = assay: Cytotoxicity against human NCI-H522 cells assessed as cell growth at 10 uM after 48 hrs by sulforhodamine B assay relative to control; details: NCI-H522, 48 h, read-out: Activity
# HOP-62 = assay: Cytotoxicity against human HOP62 cells assessed as cell growth at 10 uM after 48 hrs by sulforhodamine B assay relative to control; details: HOP-62, 48 h, read-out: Activity
# SW-620 [8] = assay: Cytotoxicity against human SW620 cells assessed as cell growth at 0.1 uM after 48 hrs by sulforhodamine B assay relative to control; details: SW-620, 48 h, read-out: Activity
# A498 [9] = assay: Cytotoxicity against human A498 cells assessed as cell growth at 10 uM after 48 hrs by sulforhodamine B assay relative to control; details: A498, 48 h, read-out: Activity
# SK-OV-3 = assay: Cytotoxicity against human SKOV3 cells assessed as cell growth at 0.01 uM after 48 hrs by sulforhodamine B assay relative to control; details: SK-OV-3, 48 h, read-out: Activity
# COLO 205 [10] = assay: Cytotoxicity against human COLO205 cells assessed as cell growth at 1 uM after 48 hrs by sulforhodamine B assay relative to control; details: COLO 205, 48 h, read-out: Activity
# UACC-257 [11] = assay: Cytotoxicity against human UACC257 cells assessed as cell growth at 1 uM after 48 hrs by sulforhodamine B assay relative to control; details: UACC-257, 48 h, read-out: Activity
# IGROV-1 = assay: Cytotoxicity against human IGROV1 cells assessed as growth inhibition after 48 hrs by sulforhodamine B assay; details: IGROV-1, 48 h
# A549 = assay: Cytotoxicity against human A549/ATCC cells assessed as cell growth at 100 uM after 48 hrs by sulforhodamine B assay relative to control; details: A549, 48 h, read-out: Activity
# HCC 2998 = assay: Cytotoxicity against human HCC2998 cells assessed as cell growth at 1 uM after 48 hrs by sulforhodamine B assay relative to control; details: HCC 2998, 48 h, read-out: Activity
# NCI-H460 = assay: Cytotoxicity against human NCI-H460 cells assessed as cell growth at 1 uM after 48 hrs by sulforhodamine B assay relative to control; details: NCI-H460, 48 h, read-out: Activity
# SN12C [12] = assay: Cytotoxicity against human SN12C cells assessed as cell growth at 1 uM after 48 hrs by sulforhodamine B assay relative to control; details: read-out: Activity
# A498 [13] = assay: Cytotoxicity against human A498 cells assessed as cell growth at 0.1 uM after 48 hrs by sulforhodamine B assay relative to control; details: A498, 48 h, read-out: Activity
# Hs-578T = assay: Cytotoxicity against human Hs 578T cells assessed as cell growth at 100 uM after 48 hrs by sulforhodamine B assay relative to control; details: read-out: Activity
# SK-MEL-5 [14] = assay: Cytotoxicity against human SK-MEL-5 cells assessed as cell growth at 100 uM after 48 hrs by sulforhodamine B assay relative to control; details: SK-MEL-5, 48 h, read-out: Activity
# NCI-H522 [15] = assay: Cytotoxicity against human NCI-H522 cells assessed as cell growth at 1 uM after 48 hrs by sulforhodamine B assay relative to control; details: NCI-H522, 48 h, read-out: Activity
# U-251 = assay: Cytotoxicity against human U251 cells assessed as cell growth at 10 uM after 48 hrs by sulforhodamine B assay relative to control; details: U-251, 48 h, read-out: Activity
# MDA-MB-435 [16] = assay: Cytotoxicity against human MDA-MB-435 cells assessed as cell growth at 0.01 uM after 48 hrs by sulforhodamine B assay relative to control; details: MDA-MB-435, 48 h, read-out: Activity
# NCI-H226 = assay: Cytotoxicity against human NCI-H226 cells assessed as cell growth at 0.1 uM after 48 hrs by sulforhodamine B assay relative to control; details: NCI-H226, 48 h, read-out: Activity
# LOX IMVI = assay: Cytotoxicity against human LOXIMVI cells assessed as growth inhibition after 48 hrs by sulforhodamine B assay
SMILES,growth at 10 µM (SN12C [1]),growth at 10 µM (SW-620 [2]),growth at 100 µM (UACC-257 [3]),growth at 1 µM (BT-549),growth at 10 µM (UO-31),LC50 (MDA-MB-435 [4]),growth at 0.01 µM (RPMI-8226),growth at 100 µM (T47D),growth at 0.01 µM (DU-145),growth at 0.01 µM (SK-MEL-5 [5]),growth at 100 µM (MCF7),growth at 0.01 µM (SNB-19),growth at 10 µM (COLO 205 [6]),growth at 0.1 µM (HCT-15),growth at 0.1 µM (ACHN),growth at 0.1 µM (NCI-H322M),growth at 10 µM (NCI-H522 [7]),growth at 10 µM (HOP-62),growth at 0.1 µM (SW-620 [8]),growth at 10 µM (A498 [9]),further results
COc1ccc(C(=O)/C=C/c2cc(-c3cc(OC)c(OC)c(OC)c3)n[nH]2)cc1OC,-82%,-77%,-97%,76%,-97%,5.52 µM,94%,-46%,104%,97%,-66%,91%,-93%,98%,97%,101%,-95%,-97%,99%,-87%,TGI (MDA-MB-435 [4]): 2.71 µM; growth at 0.01 µM (SK-OV-3): 100%; growth at 1 µM (COLO 205 [10]): 95%; growth at 1 µM (UACC-257 [11]): 81%; LC50 (IGROV-1): 6.48 µM; TGI (IGROV-1): 3.41 µM; growth at 100 µM (A549): -78%; growth at 1 µM (HCC 2998): 116%; growth at 1 µM (NCI-H460): 70%; growth at 1 µM (SN12C [12]): 80%; growth at 0.1 µM (A498 [13]): 86%; growth at 100 µM (Hs-578T): -15%; growth at 100 µM (SK-MEL-5 [14]): -92%; growth at 1 µM (NCI-H522 [15]): -63%; growth at 10 µM (U-251): -100%; growth at 0.01 µM (MDA-MB-435 [16]): 95%; growth at 0.1 µM (NCI-H226): 97%; LC50 (LOX IMVI): 5.53 µM; TGI (LOX IMVI): 2.76 µM
COc1cc(-c2cc(/C=C/C(=O)c3ccc4c(c3)OCO4)[nH]n2)cc(OC)c1OC,22%,-9%,-1%,92%,-29%,> 100 µM,92%,-19%,104%,98%,3%,94%,-66%,92%,109%,95%,-88%,-38%,96%,9%,growth at 0.01 µM (SK-OV-3): 103%; growth at 1 µM (COLO 205 [10]): 93%; growth at 1 µM (UACC-257 [11]): 81%; LC50 (IGROV-1): > 100 µM; TGI (IGROV-1): 62.1 µM; growth at 100 µM (A549): 8%; growth at 1 µM (HCC 2998): 106%; growth at 1 µM (NCI-H460): 93%; growth at 1 µM (SN12C [12]): 91%; growth at 0.1 µM (A498 [13]): 79%; growth at 100 µM (Hs-578T): -2%; growth at 100 µM (SK-MEL-5 [14]): 8%; growth at 1 µM (NCI-H522 [15]): 52%; growth at 10 µM (U-251): -31%; growth at 0.01 µM (MDA-MB-435 [16]): 96%; growth at 0.1 µM (NCI-H226): 98%; LC50 (LOX IMVI): 7.83 µM; TGI (LOX IMVI): 3.78 µM
